From patent US20110053773A1, “METHODS OF IMPROVING NUTRITIONAL VALUE OF PLANTS” (UNIVERSITY OF TENNESSEE RESEARCH FOUNDATION, priority 2009, published 2011)

How the values were obtained:
[1] = system: basil 'Genovese'; experiment: Content analysis of basil: protein, minerals (Example 4, Tables 10-11); assay type: in vivo; conditions: 28 DA-A
Description: (§1) Greenhouse and laboratory studies were conducted to ascertain the tolerance and nutritional quality differences following postemergence applications of the insecticide chlorpyrifos, the fungicide chlorothalonil, the PGRs mepiquat-chloride and paclobutrazol, and the safeners napthalic anhydride and isoxadifen-ethyl on kale ‘Red Russian’ and basil ‘Genovese’. Visual injury was rated based on general phytotoxicity, chlorosis, and visual stunting and each measurement was based on a percent scale from 0 to 100 where 0 equals no visual response and 100 equals complete plant death. Kale and basil were both harvested approximately 4 weeks after treatments and plants were pooled over replicates for content analysis of crude protein, crude amino acid content, acid detergent fiber, neutral detergent fiber, total fatty acids, and/or key mineral content (including Na, Ca, P, Mg, K, Fe, Mn, Zn, and Cu). In addition, the amounts of key individual amino acids (aspartic acid, threonine, glutamic acid, proline, glycine, cysteine, valine, leucine, isoleucine, methionine, and lysine) and composite classifications of fatty acid (saturated fatty acids, monounsaturated fatty acids, polyunsaturated fatty acids) were also analyzed from these sub-samples for kale (Tables 10-14).

[2] = system: basil ‘Genovese’; experiment: Yield, fresh weight of basil after insecticide, fungicide, PGRs and safeners (Example 4, Table 10); assay type: in vivo; conditions: DA-A, check 31.8
Description: as §1

[3] = system: basil 'Genovese'; experiment: Visual injury of basil after insecticide, fungicide, PGRs, safeners (Example 4)
Description: as §1

[4] = rates g ai/ha: chlroprifos 3370, chlorothalonil 7900, paclobutrazol 9.7, mepiquat-chloride 37, Isoxadifen 16, Napthalic anhydride 527, + NIS 0.25 % v/v
[5] = rates g ai/ha: chlropyrifos 1120, chlorothalonil 2630, paclobutrazol 3.23, mepiquat-chloride 12.3, Isoxadifen 8, Napthalic anhydride 264, + NIS 0.25 % v/v
[6] = 7 DA-A, rates g ai/ha: chlropyrifos 1120, chlorothalonil 2630, paclobutrazol 3.23, mepiquat-chloride 12.3, Isoxadifen 8, Napthalic anhydride 264, + NIS 0.25 % v/v
[7] = 7 DA-A, rates g ai/ha: chlropyrifos 3370, chlorothalonil 7900, paclobutrazol 9.7, mepiquat-chloride 37, Isoxadifen 16, Napthalic anhydride 527, + NIS 0.25 % v/v
[8] = 14 DA-A, rates g ai/ha: chlropyrifos 1120, chlorothalonil 2630, paclobutrazol 3.23, mepiquat-chloride 12.3, Isoxadifen 8, Napthalic anhydride 264, + NIS 0.25 % v/v
[9] = 14 DA-A, rates g ai/ha: chlropyrifos 3370, chlorothalonil 7900, paclobutrazol 9.7, mepiquat-chloride 37, Isoxadifen 16, Napthalic anhydride 527, + NIS 0.25 % v/v
[10] = 28 DA-A, rates g ai/ha: chlropyrifos 1120, chlorothalonil 2630, paclobutrazol 3.23, mepiquat-chloride 12.3, Isoxadifen 8, Napthalic anhydride 264, + NIS 0.25 % v/v
[11] = 28 DA-A, rates g ai/ha: chlropyrifos 3370, chlorothalonil 7900, paclobutrazol 9.7, mepiquat-chloride 37, Isoxadifen 16, Napthalic anhydride 527, + NIS 0.25 % v/v

O=C1OC(=O)c2cccc3cccc1c23 [napthalic anhydride]
ADF, Percent Increase Over the Untreated Check (on a % dry matter basis) [1, 4]: 4 % check | Calcium, Percent Increase Over the Untreated Check (on a % dry matter basis) [1, 4]: −8 % check | Copper, Percent Increase Over the Untreated Check (on a % dry matter basis) [1, 4]: −17 % check | Iron, Percent Increase Over the Untreated Check (on a % dry matter basis) [1, 4]: 0 % check | Magnesium, Percent Increase Over the Untreated Check (on a % dry matter basis) [1, 4]: −6 % check | Manganese, Percent Increase Over the Untreated Check (on a % dry matter basis) [1, 4]: −16 % check | NDF, Percent Increase Over the Untreated Check (on a % dry matter basis) [1, 4]: 1 % check | Phosphorous, Percent Increase Over the Untreated Check (on a % dry matter basis) [1, 4]: −9 % check | Potassium, Percent Increase Over the Untreated Check (on a % dry matter basis) [1, 4]: −23 % check | Protein, Percent Increase Over the Untreated Check (on a % dry matter basis) [1, 4]: 3 % check | Sodium, Percent Increase Over the Untreated Check (on a % dry matter basis) [1, 4]: −8 % check | Soluble protein, Percent Increase Over the Untreated Check (on a % dry matter basis) [1, 4]: 31 % check | Zinc, Percent Increase Over the Untreated Check (on a % dry matter basis) [1, 4]: −13 % check | ADF, Percent Increase Over the Untreated Check (on a % dry matter basis) [1, 5]: 13 % check | Calcium, Percent Increase Over the Untreated Check (on a % dry matter basis) [1, 5]: 2 % check | Copper, Percent Increase Over the Untreated Check (on a % dry matter basis) [1, 5]: 0 % check | Iron, Percent Increase Over the Untreated Check (on a % dry matter basis) [1, 5]: 14 % check | Magnesium, Percent Increase Over the Untreated Check (on a % dry matter basis) [1, 5]: 12 % check | Manganese, Percent Increase Over the Untreated Check (on a % dry matter basis) [1, 5]: 37 % check | NDF, Percent Increase Over the Untreated Check (on a % dry matter basis) [1, 5]: 2 % check | Phosphorous, Percent Increase Over the Untreated Check (on a % dry matter basis) [1, 5]: 22 % check | Potassium, Percent Increase Over the Untreated Check (on a % dry matter basis) [1, 5]: −4 % check | Protein, Percent Increase Over the Untreated Check (on a % dry matter basis) [1, 5]: 32 % check | Sodium, Percent Increase Over the Untreated Check (on a % dry matter basis) [1, 5]: 33 % check | Soluble protein, Percent Increase Over the Untreated Check (on a % dry matter basis) [1, 5]: 4 % check | Zinc, Percent Increase Over the Untreated Check (on a % dry matter basis) [1, 5]: 47 % check | Yield Fresh weight [2, 5]: 41.5 grams | Yield Fresh weight ([2]; rates g ai/ha: chlropyrifos 3370, chlorothalonil 7900, paclobutrazol 9.7, mepiquat-chloride 37, Isoxadifen 16, Napthalic anhydride 527, + NIS 0.25 % v/v): 24.5 grams | Phytotoxicity Chlorosis [3, 6]: 0% | Phytotoxicity General [3, 6]: 5% | Phytotoxicity Stunting [3, 6]: 0% | Phytotoxicity Chlorosis [3, 7]: 2% | Phytotoxicity General [3, 7]: 7% | Phytotoxicity Stunting [3, 7]: 5% | Phytotoxicity Chlorosis [3, 8]: 3% | Phytotoxicity General [3, 8]: 7% | Phytotoxicity Stunting [3, 8]: 0% | Phytotoxicity Chlorosis [3, 9]: 2% | Phytotoxicity General [3, 9]: 10% | Phytotoxicity Stunting [3, 9]: 7% | Phytotoxicity Chlorosis [3, 10]: 2% | Phytotoxicity General [3, 10]: 5% | Phytotoxicity Stunting [3, 10]: 0% | Phytotoxicity Chlorosis [3, 11]: 2% | Phytotoxicity General [3, 11]: 3% | Phytotoxicity Stunting [3, 11]: 7%
